Experimental data: patent US11739074B2, “Ras inhibitors” (Revolution Medicines, Inc., priority 2019, dated 2023)
Like-named read-outs stand apart in the source and are kept apart here.

Columns and labels:
KRAS G13C = KRAS G13C (Homo sapiens, UniProt P01116+P62937, G13C); experiment: Ras-Raf disruption/FRET/MOA assay, KRAS G13C; assay type: biochemical; conditions: disruption of BRAF RBD binding, with Cyclophilin A; read-out: KRAS G13C FRET IC50
How it was run: (§1)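 TR-FRET read-out of the K-Ras:RAF complex: decreased ratio relative to DMSO indicates compound-driven cyclophilin A ternary complex formation. Compound (top 30 µM, 3-fold, 10 points), 25 µM cyclophilin A, 12.5 nM GMPPNP-loaded His6-K-Ras and 50 nM GST-BRAF RBD were incubated 3 h at 25 °C (pH 7.3), followed by Eu/APC antibodies for 1.5 h.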

KRAS G13D = KRAS G13D (Homo sapiens, UniProt P01116+P62937, G13D); experiment: Ras-Raf disruption/FRET/MOA assay, KRAS G13D; assay type: biochemical; conditions: disruption of BRAF RBD binding, with Cyclophilin A; read-out: KRAS G13D FRET IC50
How it was run: as §1

AsPC-1 (K-Ras G12D) [1] = experiment: Potency assay: pERK in AsPC-1 cells; assay type: cell-based; conditions: Homo sapiens
KRAS G12V = KRAS G12V (Homo sapiens, UniProt P01116+P62937, G12V); experiment: Ras-Raf disruption/FRET/MOA assay, KRAS G12V; assay type: biochemical; conditions: disruption of BRAF RBD binding, with Cyclophilin A; read-out: KRAS G12V FRET IC50
How it was run: as §1

NRAS G12C = target: T1, NRAS G12C (Homo sapiens, UniProt P01111+P62937, G12C); experiment: Ras-Raf disruption/FRET/MOA assay, NRAS G12C; assay type: biochemical
T1 construct: His6
How it was run: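 Disruption of Ras:RAF binding was read as a drop in TR-FRET ratio versus DMSO controls. The buffer was 25 mM HEPES pH 7.3, 0.002% Tween20, 0.1% BSA, 100 mM NaCl and 5 mM MgCl2. Compounds were tested as a 10-point 3-fold dilution series from 30 μM. Detection used 10 nM anti-His Eu-W1024 and 50 nM anti-GST allophycocyanin.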

KRAS Q61H = KRAS Q61H (Homo sapiens, UniProt P01116+P62937, Q61H); experiment: Ras-Raf disruption/FRET/MOA assay, KRAS Q61H; assay type: biochemical; conditions: KRAS Q61H; read-out: KRAS Q61H FRET data IC50
From the text: (§2) Disruption of B-Raf Ras-Binding Domain (BRAF^RBD) Interaction with K-Ras by Compounds of the Invention (Also Called a FRET Assay or an MOA Assay)
(§3) Note—The following protocol describes a procedure for monitoring disruption of K-Ras G12C (GMP-PNP) binding to BRAF^RBD by a compound of the invention. This protocol may also be executed substituting other Ras proteins or nucleotides, such as K-Ras G12D and K-Ras G13D.
(§4) The purpose of this biochemical assay was to measure the ability of test compounds to facilitate ternary complex formation between a nucleotide-loaded K-Ras isoform and Cyclophilin A; the resulting ternary complex disrupts binding to a BRAF^RBD construct, inhibiting K-Ras signaling through a RAF effector.
(§5) In assay buffer containing 25 mM HEPES pH 7.3, 0.002% Tween20, 0.1% BSA, 100 mM NaCl and 5 mM MgCl2, tagless Cyclophilin A, His6-K-Ras-GMPPNP, and GST-BRAF^RBD were combined in a 384-well assay plate at final concentrations of 25 μM, 12.5 nM, and 50 nM, respectively. Compound was present in plate wells as a 10-point 3-fold dilution series starting at a final concentration of 30 μM. After incubation at 25° C. for 3 hours, a mixture of anti-His Eu-W1024 and anti-GST allophycocyanin was then added to assay sample wells at final concentrations of 10 nM and 50 nM, respectively, and the reaction incubated for an additional 1.5 hours. […] Compounds that facilitate disruption of a K-Ras:RAF complex were identified as those eliciting a decrease in the TR-FRET ratio relative to DMSO control wells.

AsPC-1 (K-Ras G12D) [2] = experiment: CellTiter-Glo cell viability assay, AsPC-1; assay type: cell-based; conditions: Homo sapiens, ASPC1, 120 h
How it was run: (§6)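 Percent-of-DMSO luminescence values (CellTiter-Glo, day 5, plates equilibrated ~30 minutes at ambient temperature) were curve-fitted using a 4-parameter logistic equation; compounds had been added straight into wells containing the cells.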

NRAS Q61K = target: T2, NRAS Q61K (Homo sapiens, UniProt P01111+P62937, Q61K); experiment: Ras-Raf disruption/FRET/MOA assay, NRAS Q61K; assay type: biochemical
T2 construct: His6
From the text: as §2, §3, §4, §5

NRAS WT = target: T3, NRAS WT (Homo sapiens, UniProt P01111+P62937); experiment: Ras-Raf disruption/FRET/MOA assay, NRAS WT; assay type: biochemical
T3 construct: His6
From the text: as §2, §3, §4, §5

KRAS WT = KRAS WT (Homo sapiens, UniProt P01116+P62937); experiment: Ras-Raf disruption/FRET/MOA assay, KRAS WT; assay type: biochemical; conditions: disruption of BRAF RBD binding, with Cyclophilin A; read-out: KRAS WT FRET IC50
How it was run: as §1

NRAS Q61R = target: T4, NRAS Q61R (Homo sapiens, UniProt P01111+P62937, Q61R); experiment: Ras-Raf disruption/FRET/MOA assay, NRAS Q61R; assay type: biochemical
T4 construct: His6
From the text: as §2, §3, §4, §5

KRAS G12D = KRAS G12D (Homo sapiens, UniProt P01116+P62937, G12D); experiment: Ras-Raf disruption/FRET/MOA assay, KRAS G12D; assay type: biochemical; conditions: disruption of BRAF RBD binding, with Cyclophilin A; read-out: KRAS G12D FRET IC50
How it was run: as §1

KRAS G12S = KRAS G12S (Homo sapiens, UniProt P01116+P62937, G12S); experiment: Ras-Raf disruption/FRET/MOA assay, KRAS G12S; assay type: biochemical; conditions: disruption of BRAF RBD binding, with Cyclophilin A; read-out: KRAS G12S FRET IC50
How it was run: as §1

KRAS G12C = KRAS G12C (Homo sapiens, UniProt P01116+P62937, G12C); experiment: Ras-Raf disruption/FRET/MOA assay, KRAS G12C; assay type: biochemical; conditions: disruption of BRAF RBD binding, with Cyclophilin A; read-out: KRAS G12C FRET IC50
How it was run: as §1

NCI-H358 (K-Ras G12C) = experiment: CellTiter-Glo cell viability assay, H358; assay type: cell-based; conditions: Homo sapiens, NCI-H358, 120 h
How it was run: as §6

[3] = ASPC1, AsPC-1 cells, K-Ras G12D, read-out: pERK EC50 (AsPC-1 KRAS G12D)
[4] = NRAS G12C, read-out: NRAS G12C FRET data IC50
[5] = AsPC-1, K-Ras G12D, 5-day treatment, read-out: AsPC-1 Cell Viability IC50
[6] = NRAS Q61K, read-out: NRAS Q61K FRET data IC50
[7] = NRAS WT, read-out: NRAS WT FRET data IC50
[8] = NRAS Q61R, read-out: NRAS Q61R FRET data IC50
[9] = read-out: AsPC-1 Cell Viability IC50
[10] = ASPC1, read-out: pERK EC50 (AsPC-1 KRAS G12D)

KRAS G12S, sequence (P01116 1-169 isoform P01116-2 G12S limits assumed): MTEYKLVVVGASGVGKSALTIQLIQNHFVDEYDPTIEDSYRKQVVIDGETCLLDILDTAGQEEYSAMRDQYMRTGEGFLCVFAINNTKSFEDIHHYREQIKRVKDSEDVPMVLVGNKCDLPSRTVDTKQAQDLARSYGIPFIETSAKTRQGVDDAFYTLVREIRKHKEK
KRAS G12S, sequence (P62937 whole entry): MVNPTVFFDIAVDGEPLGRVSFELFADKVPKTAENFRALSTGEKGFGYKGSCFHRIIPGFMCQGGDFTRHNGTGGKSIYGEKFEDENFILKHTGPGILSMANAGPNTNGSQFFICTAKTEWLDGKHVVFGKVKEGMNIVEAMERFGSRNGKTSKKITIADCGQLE
KRAS G12D, sequence (P01116 1-169 isoform P01116-2 G12D limits assumed): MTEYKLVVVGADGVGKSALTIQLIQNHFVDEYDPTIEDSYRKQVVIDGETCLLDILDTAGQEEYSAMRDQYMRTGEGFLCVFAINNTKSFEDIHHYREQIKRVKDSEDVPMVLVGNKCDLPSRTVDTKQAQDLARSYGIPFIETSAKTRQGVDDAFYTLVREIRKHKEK
KRAS G12D, sequence (P62937 whole entry): as the sequence (P62937 whole entry) above
KRAS Q61H, sequence (P01116 1-169 isoform P01116-2 Q61H limits assumed): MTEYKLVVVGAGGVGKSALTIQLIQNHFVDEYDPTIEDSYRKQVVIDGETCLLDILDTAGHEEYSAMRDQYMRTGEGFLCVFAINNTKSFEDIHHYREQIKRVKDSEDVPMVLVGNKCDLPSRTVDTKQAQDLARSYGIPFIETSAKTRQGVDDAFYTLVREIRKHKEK
KRAS Q61H, sequence (P62937 whole entry, the tested form may be a part): as the sequence (P62937 whole entry) above
KRAS G13D, sequence (P01116 1-169 isoform P01116-2 G13D limits assumed): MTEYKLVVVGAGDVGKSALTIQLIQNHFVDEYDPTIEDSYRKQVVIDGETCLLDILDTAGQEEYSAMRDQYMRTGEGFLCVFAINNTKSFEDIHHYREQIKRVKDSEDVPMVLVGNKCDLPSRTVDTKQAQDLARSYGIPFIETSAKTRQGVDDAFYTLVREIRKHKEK
KRAS G13D, sequence (P62937 whole entry): as the sequence (P62937 whole entry) above
KRAS WT, sequence (P01116 1-169 isoform P01116-2 limits assumed): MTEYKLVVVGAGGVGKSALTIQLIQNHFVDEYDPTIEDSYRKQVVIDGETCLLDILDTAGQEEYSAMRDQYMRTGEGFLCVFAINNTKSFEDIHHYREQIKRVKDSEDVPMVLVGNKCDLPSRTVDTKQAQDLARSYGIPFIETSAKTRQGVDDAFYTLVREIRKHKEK
KRAS WT, sequence (P62937 whole entry): as the sequence (P62937 whole entry) above
T3 sequence (P01111 whole entry): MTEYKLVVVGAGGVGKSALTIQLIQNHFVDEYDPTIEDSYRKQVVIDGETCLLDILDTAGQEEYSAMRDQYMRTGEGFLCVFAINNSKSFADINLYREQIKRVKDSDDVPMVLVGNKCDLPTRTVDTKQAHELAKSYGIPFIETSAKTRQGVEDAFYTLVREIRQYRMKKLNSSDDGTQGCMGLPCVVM
T3 sequence (P62937 whole entry): as the sequence (P62937 whole entry) above
T4 sequence (P01111 whole entry Q61R): as the sequence (P01111 whole entry) above, with Q61R counted along it
T4 sequence (P62937 whole entry): as the sequence (P62937 whole entry) above
KRAS G12V, sequence (P01116 1-169 isoform P01116-2 G12V limits assumed): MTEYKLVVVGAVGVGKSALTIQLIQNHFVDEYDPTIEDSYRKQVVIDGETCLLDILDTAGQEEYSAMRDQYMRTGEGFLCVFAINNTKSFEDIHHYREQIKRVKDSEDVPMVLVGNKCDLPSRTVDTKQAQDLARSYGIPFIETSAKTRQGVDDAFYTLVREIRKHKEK
KRAS G12V, sequence (P62937 whole entry): as the sequence (P62937 whole entry) above
T2 sequence (P01111 whole entry Q61K): as the sequence (P01111 whole entry) above, with Q61K counted along it
T2 sequence (P62937 whole entry): as the sequence (P62937 whole entry) above
T1 sequence (P01111 whole entry G12C): as the sequence (P01111 whole entry) above, with G12C counted along it
T1 sequence (P62937 whole entry): as the sequence (P62937 whole entry) above
KRAS G13C, sequence (P01116 1-169 isoform P01116-2 G13C limits assumed): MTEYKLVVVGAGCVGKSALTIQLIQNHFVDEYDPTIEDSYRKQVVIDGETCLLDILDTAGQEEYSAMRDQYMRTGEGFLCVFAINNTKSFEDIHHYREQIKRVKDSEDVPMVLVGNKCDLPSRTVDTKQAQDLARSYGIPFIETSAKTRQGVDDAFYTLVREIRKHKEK
KRAS G13C, sequence (P62937 whole entry): as the sequence (P62937 whole entry) above
KRAS G12C, sequence (P01116 1-169 isoform P01116-2 G12C limits assumed): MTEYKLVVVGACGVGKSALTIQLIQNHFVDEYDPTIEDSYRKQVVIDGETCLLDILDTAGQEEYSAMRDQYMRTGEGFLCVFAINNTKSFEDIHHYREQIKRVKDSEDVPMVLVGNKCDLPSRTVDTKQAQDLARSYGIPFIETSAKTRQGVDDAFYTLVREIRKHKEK
KRAS G12C, sequence (P62937 whole entry): as the sequence (P62937 whole entry) above

SMILES	IC50 (KRAS G13C) [nM]	IC50 (KRAS G13D) [nM]	EC50 (AsPC-1 (K-Ras G12D) [1]; [3]) [nM]	IC50 (KRAS G12V) [nM]	IC50 (NRAS G12C; [4]) [nM]	IC50 (KRAS Q61H) [nM]	IC50 (AsPC-1 (K-Ras G12D) [2]; [5]) [nM]	IC50 (NRAS Q61K; [6]) [nM]	IC50 (NRAS WT; [7]) [nM]	IC50 (KRAS WT) [nM]	IC50 (NRAS Q61R; [8]) [nM]	IC50 (KRAS G12D) [nM]	IC50 (KRAS G12S) [nM]	IC50 (KRAS G12C) [nM]	further results
CCn1c(-c2cccnc2[C@H](C)OC)c2c3cc(ccc31)-c1cc(O)cc(c1)C[C@H](NC(=O)[C@H](C1CCCC1)N1CC[C@@]3(CCN(C(=O)[C@@H]4N[C@@H]4C4CC4)C3)C1=O)C(=O)N1CCC[C@H](N1)C(=O)OCC(C)(C)C2 [Compound 215]	10 to 100	100 to 1000	< 5000	100 to 1000	10 to 100	10 to 100	1000 to 10000	1000 to 10000	100 to 1000	100 to 1000	1000 to 10000	100 to 1000	100 to 1000	10 to 100	
CCn1c(-c2cccnc2[C@H](C)OC)c2c3cc(ccc31)-c1cc(O)cc(c1)C[C@H](NC(=O)C(C(C)C)N(C)C(=O)[C@@]1(C)CCCN1C(=O)[C@H]1CN1)C(=O)N1CCC[C@H](N1)C(=O)OCC(C)(C)C2 (stereo partly drawn) [Compound 240]			< 5000				1000 to 10000								IC50 (NRAS G12C; NRAS G12C FRET data IC50, NRAS G12C): 100 to 1000 nM; IC50 (NRAS Q61K): > 10000 nM; IC50 (NRAS WT): 1000 to 10000 nM; IC50 (NRAS Q61R): 1000 to 10000 nM
CCn1c(-c2cnccc2COC)c2c3cc(ccc31)-c1cc(O)cc(c1)C[C@H](NC(=O)[C@H](C(C)C)N(C)C(=O)CN(C)C(=O)[C@@H]1CN1S(C)(=O)=O)C(=O)N1CCC[C@H](N1)C(=O)OCC(C)(C)C2 (stereo partly drawn) [Compound 37]	10 to 100	100 to 1000		100 to 1000	10 to 100	10 to 100		100 to 1000	10 to 100	10 to 100	100 to 1000	100 to 1000	10 to 100	10 to 100	IC50 (AsPC-1 (K-Ras G12D) [2]; [9]): > 10000 nM
CCn1c(-c2cccnc2[C@H](C)OC)c2c3cc(ccc31)-c1cc(O)cc(c1)C[C@H](NC(=O)[C@H](C(C)C)N(C)C(=O)CN(C)C(=O)[C@@H]1CN1CCCOC(C)=O)C(=O)N1CCC[C@H](N1)C(=O)OCC(C)(C)C2 (stereo partly drawn) [Compound 267]															EC50 (AsPC-1 (K-Ras G12D) [1]; [10]): < 5000 nM; IC50 (AsPC-1 (K-Ras G12D) [2]; read-out: AsPC-1 Cell Viability IC50, AsPC-1, K-Ras G12D, 5-day treatment): 100 to 1000 nM; IC50 (NRAS WT): 10 to 100 nM; IC50 (NCI-H358 (K-Ras G12C); read-out: H358 Cell Viability IC50, NCI-H358, K-Ras G12C, 5-day treatment): < 10 nM
CCn1c(-c2cccnc2[C@H](C)OC)c2c3cc(ccc31)-c1cc(O)cc(c1)C[C@H](NC(=O)[C@H](C(C)C)N1CCCC3(CN(C(=O)[C@@H]4CN4)C3)C1=O)C(=O)N1CCC[C@H](N1)C(=O)OCC(C)(C)C2 [Compound 306]	10 to 100	10 to 100	< 5000	10 to 100	< 10	10 to 100	1000 to 10000	100 to 1000	10 to 100	10 to 100	100 to 1000	100 to 1000	10 to 100	< 10	
CCn1c(-c2cnccc2COC)c2c3cc(ccc31)-c1cc(O)cc(c1)C[C@H](NC(=O)[C@H](C(C)C)N(C)C(=O)CN(C)C(=O)[C@H]1CN1S(C)(=O)=O)C(=O)N1CCC[C@H](N1)C(=O)OCC(C)(C)C2 (stereo partly drawn) [Example 36, (2R)—N-(2-(((2S)-1-(((6^3S,4S)-1^1-ethyl-2^5-hydroxy-1^2-(4-(methoxymethyl)pyridin-3-yl)-10,10-dimethyl-5,7-dioxo-6^1,6^2,6^3,6^4,6^5,6^6-hexahydro-1^1H-8-oxa-1(5,3)-indola-6(1,3)-pyridazina-2(1,3)-benzenacycloundecaphane-4-yl)amino)-3-methyl-1-oxobutan-2-yl)(methyl)amino)-2-oxoethyl)-N-methyl-1-(methylsulfonyl)aziridine-2-carboxamide]	10 to 100	100 to 1000		10 to 100	10 to 100	10 to 100		100 to 1000	100 to 1000	10 to 100	100 to 1000	100 to 1000	10 to 100	10 to 100	EC50 (AsPC-1 (K-Ras G12D) [1]; [10]): < 5000 nM; IC50 (AsPC-1 (K-Ras G12D) [2]; [9]): > 10000 nM
CCn1c(-c2cccnc2[C@H](C)OC)c2c3cc(ccc31)-c1cccc(c1)C[C@H](NC(=O)[C@H](C1CCCC1)N1CC[C@]3(CCN(C(=O)[C@@H]4N[C@@H]4C4CC4)C3)C1=O)C(=O)N1CCC[C@H](N1)C(=O)OCC(C)(C)C2 [Compound 313]			< 5000			100 to 1000	10 to 100								IC50 (NCI-H358 (K-Ras G12C); NCI-H358, K-Ras G12C, 5-day treatment, read-out: H358 Cell Viability IC50): 100 to 1000 nM
